This passage reports IC50 and Ki results from ChEMBL document CHEMBL4396892, “Estrogen signaling: An emanating therapeutic target for breast cancer treatment” (Eur J Med Chem, 2019).

Assay [1] has as its target T1, Aromatase (Homo sapiens, UniProt P11511).
T1 sequence (P11511 whole entry): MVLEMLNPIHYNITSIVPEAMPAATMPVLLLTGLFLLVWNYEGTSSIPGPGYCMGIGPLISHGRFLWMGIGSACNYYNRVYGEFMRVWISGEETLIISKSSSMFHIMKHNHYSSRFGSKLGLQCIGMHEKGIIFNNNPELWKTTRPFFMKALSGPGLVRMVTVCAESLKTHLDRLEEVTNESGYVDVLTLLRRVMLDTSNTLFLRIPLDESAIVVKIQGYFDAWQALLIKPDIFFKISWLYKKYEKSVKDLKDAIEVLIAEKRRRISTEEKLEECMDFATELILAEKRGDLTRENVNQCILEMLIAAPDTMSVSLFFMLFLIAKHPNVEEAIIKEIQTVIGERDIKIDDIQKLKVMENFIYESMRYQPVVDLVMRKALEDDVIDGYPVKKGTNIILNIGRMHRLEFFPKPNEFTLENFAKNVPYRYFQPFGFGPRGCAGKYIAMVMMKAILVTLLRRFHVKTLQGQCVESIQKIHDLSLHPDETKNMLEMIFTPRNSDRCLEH
The class given is microsomes, Placenta, Microsome.

Assay [2] concerns the target T2, Steryl-sulfatase (Homo sapiens, UniProt P08842).
T2 sequence (P08842 whole entry): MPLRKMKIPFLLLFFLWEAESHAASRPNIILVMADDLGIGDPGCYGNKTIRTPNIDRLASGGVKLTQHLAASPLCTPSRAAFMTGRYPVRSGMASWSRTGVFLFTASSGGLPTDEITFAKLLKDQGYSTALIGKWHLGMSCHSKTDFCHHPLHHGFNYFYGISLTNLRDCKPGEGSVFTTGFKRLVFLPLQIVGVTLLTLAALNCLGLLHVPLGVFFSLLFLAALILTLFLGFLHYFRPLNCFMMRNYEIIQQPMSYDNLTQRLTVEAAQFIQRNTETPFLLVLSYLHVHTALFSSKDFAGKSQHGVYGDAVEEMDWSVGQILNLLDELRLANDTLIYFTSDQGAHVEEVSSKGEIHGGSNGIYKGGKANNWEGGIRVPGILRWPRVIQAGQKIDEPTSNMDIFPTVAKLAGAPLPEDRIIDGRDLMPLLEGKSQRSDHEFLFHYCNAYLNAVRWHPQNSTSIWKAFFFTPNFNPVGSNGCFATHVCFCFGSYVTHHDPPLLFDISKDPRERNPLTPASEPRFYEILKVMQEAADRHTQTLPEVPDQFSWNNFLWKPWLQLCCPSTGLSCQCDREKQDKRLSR

Assay [3] addresses T2, Steryl-sulfatase. This is another data set of the same source.
Assay [4] has as its target T1, Aromatase. The class given is microsomes, Placenta, Microsome. The source holds these as a separate data set.
Assay [5] addresses T1, Aromatase.
Assay [6] deals with T2, Steryl-sulfatase. The class given is microsomes, Placenta, Microsome.
The target in assay [7] is T2, Steryl-sulfatase. Type of assay: cell-based, HEK293.
Assay [8] has as its target T2, Steryl-sulfatase. The class given is cell-based, HEK293. This is another data set of the same source.
In assay [9] the target is T3, Estrogen receptor (Homo sapiens, UniProt P03372).
T3 sequence (P03372 whole entry): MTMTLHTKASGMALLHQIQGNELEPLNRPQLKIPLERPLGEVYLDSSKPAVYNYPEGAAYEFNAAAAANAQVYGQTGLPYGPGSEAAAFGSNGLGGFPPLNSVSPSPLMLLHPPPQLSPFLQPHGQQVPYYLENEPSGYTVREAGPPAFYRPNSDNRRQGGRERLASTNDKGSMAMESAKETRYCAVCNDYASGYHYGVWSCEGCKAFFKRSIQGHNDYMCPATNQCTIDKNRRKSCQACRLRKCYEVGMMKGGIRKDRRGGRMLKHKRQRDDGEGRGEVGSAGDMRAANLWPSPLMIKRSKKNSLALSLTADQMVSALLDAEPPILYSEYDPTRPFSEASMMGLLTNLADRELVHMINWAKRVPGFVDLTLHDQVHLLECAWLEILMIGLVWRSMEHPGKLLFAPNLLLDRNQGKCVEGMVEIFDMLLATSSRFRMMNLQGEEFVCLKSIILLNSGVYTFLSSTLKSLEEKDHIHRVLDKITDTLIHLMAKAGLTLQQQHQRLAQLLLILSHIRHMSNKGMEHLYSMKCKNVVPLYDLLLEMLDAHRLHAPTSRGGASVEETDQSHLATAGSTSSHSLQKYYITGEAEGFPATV

In assay [10] the target is T2, Steryl-sulfatase. This is another data set of the same source.
For assay [11], the target named is T3, Estrogen receptor. Type of assay: cell-based, MCF7.
For assay [12], the system named is MCF7. Briefly: cells. To be noted: Homo sapiens, MCF7, 72 h. The class given is functional, cell-based.
For assay [13], the target named is T3, Estrogen receptor. The source holds these as a separate data set.
For assay [14], the target named is Estrogen receptor beta (Homo sapiens, UniProt Q92731). Type of assay: cell-based, MCF7.
In assay [15] the target is Receptor tyrosine-protein kinase erbB-2 (Homo sapiens, UniProt P04626).
For assay [16], the target named is RAF proto-oncogene serine/threonine-protein kinase (Homo sapiens, UniProt P04049). Type of assay: cell-based, MCF7.
The target of assay [17] is T3, Estrogen receptor. The source holds these as a separate data set.

Chain of Receptor tyrosine-protein kinase erbB-2 (P04626 whole entry): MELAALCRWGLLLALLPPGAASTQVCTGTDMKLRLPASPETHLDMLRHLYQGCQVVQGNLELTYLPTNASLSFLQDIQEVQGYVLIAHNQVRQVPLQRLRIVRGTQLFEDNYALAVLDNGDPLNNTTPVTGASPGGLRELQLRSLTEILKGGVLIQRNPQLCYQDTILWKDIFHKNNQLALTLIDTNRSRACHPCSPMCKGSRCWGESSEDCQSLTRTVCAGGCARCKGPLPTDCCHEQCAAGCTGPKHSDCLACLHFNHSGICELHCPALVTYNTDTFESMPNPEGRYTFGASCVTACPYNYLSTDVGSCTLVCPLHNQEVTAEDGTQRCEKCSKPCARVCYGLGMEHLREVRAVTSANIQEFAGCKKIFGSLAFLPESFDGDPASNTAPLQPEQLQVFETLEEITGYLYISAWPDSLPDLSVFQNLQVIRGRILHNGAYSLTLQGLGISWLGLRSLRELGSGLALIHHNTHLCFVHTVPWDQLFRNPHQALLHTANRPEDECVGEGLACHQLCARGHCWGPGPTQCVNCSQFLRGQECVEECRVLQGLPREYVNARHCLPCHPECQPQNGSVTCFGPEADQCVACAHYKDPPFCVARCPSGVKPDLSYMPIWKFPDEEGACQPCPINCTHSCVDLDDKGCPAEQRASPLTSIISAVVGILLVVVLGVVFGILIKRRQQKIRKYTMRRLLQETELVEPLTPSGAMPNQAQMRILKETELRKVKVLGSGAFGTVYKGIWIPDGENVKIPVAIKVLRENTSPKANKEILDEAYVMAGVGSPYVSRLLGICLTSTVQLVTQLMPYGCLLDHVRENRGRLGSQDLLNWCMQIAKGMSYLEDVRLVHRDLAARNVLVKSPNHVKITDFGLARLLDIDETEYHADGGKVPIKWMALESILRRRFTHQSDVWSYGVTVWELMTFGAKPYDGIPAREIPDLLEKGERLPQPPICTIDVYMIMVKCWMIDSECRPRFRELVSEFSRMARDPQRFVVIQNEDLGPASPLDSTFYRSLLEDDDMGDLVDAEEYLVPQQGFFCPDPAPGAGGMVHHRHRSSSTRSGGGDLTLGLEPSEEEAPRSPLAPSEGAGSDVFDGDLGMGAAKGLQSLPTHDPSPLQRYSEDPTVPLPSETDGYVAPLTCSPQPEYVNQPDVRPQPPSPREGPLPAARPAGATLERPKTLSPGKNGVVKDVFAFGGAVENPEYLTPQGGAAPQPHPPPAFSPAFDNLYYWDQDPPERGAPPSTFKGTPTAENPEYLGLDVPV
Chain of RAF proto-oncogene serine/threonine-protein kinase (P04049 whole entry): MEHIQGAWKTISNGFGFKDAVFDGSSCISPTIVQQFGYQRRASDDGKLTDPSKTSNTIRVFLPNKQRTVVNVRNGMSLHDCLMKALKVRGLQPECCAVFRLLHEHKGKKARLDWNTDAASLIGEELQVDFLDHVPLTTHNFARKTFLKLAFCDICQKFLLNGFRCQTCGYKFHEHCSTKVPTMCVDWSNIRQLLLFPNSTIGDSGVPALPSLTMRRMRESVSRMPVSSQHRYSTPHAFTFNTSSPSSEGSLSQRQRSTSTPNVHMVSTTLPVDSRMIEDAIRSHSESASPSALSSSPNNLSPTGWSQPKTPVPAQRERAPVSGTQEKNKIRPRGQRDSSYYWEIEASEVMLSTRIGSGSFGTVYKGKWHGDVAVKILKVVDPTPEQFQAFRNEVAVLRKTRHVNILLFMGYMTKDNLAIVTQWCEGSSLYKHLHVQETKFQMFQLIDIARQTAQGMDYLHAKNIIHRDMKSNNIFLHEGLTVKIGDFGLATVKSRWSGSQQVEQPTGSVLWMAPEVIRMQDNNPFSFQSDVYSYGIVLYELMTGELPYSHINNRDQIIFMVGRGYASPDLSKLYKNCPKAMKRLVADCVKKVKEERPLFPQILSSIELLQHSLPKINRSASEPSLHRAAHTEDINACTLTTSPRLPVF
Chain of Estrogen receptor beta (Q92731 whole entry): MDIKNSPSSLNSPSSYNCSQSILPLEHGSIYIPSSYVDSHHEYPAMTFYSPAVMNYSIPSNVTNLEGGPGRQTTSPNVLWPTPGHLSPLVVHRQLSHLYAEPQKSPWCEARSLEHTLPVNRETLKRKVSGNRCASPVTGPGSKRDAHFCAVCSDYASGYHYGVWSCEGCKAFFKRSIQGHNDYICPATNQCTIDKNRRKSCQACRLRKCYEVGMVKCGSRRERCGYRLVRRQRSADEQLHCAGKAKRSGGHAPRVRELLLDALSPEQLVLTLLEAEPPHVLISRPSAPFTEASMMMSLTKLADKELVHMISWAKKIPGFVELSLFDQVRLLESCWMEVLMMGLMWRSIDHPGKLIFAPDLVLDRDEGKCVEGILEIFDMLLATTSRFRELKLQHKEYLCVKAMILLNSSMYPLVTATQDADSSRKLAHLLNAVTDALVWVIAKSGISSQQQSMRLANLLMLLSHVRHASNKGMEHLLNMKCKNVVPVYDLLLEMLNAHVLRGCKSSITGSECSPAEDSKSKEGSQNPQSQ

`N#Cc1ccc(N(Cc2ccc(Br)cc2)n2cnnc2)cc1` showed an IC50 in [1] of 0.4 nM.
The compound `CC(C)(C)c1cc(=O)c2cc(OS(N)(=O)=O)ccc2o1` had an IC50 in [2] of 0.047 nM.
On the same count and under the same terms, next, `CCCCCCCCCc1cc(=O)c2cc(OS(N)(=O)=O)ccc2o1`: 0.089 nM.
`C[C@]12CC[C@@H]3c4ccc(C(F)(F)S(N)(=O)=O)cc4CC[C@H]3[C@@H]1CCC2=O` yielded a Ki in [3] of 28000 to 82000 nM.
Take `COc1ccc2c(c1)C(N)=C(Cc1ccncc1)C2=O`: in assay [4], the IC50 turned out to be 100 nM.
Take `CC/C(=C(\c1ccc(OCCN(C)C)cc1)c1ccc(OS(N)(=O)=O)cc1)c1ccccc1`: the Ki in assay [3] is greater than 500000 nM.
The compound `CC/C(=C(/c1ccc(OCCN(C)C)cc1)c1ccc(OS(N)(=O)=O)cc1)c1ccccc1` registered a Ki in [3] of 35900 nM.
`N#Cc1ccc2sc(C34CC5CC(CC(C5)C3)C4)cc(=O)c2c1` displayed an IC50 in assay [3] of 180 nM. This lies in the sub-micromolar range.
`C[C@]12CCC(=O)C=C1C=C(CCc1ccccc1)[C@@H]1[C@@H]2CC[C@]2(C)C(=O)CC[C@@H]12` showed a Ki in [5] of 174 nM. That is a sub-micromolar value.
As for `CCCCCCCCCCCCCC(=O)NCc1ccc(OS(N)(=O)=O)cc1`, the IC50 in [6] was 72 nM.
For the compound `CC(C)(C)c1ccc(C[C@]2(O)CC[C@H]3[C@@H]4CC=C5C[C@@H](OS(N)(=O)=O)CC[C@]5(C)[C@H]4CC[C@@]32C)cc1`, the IC50 stood at 46 nM in [7] and 14 nM in [8].
In assay [9], `CC(C)(C#N)c1cc(CSc2ccc(OS(N)(=O)=O)cc2)cc(Cn2cncn2)c1` gave an IC50 of 3.5 nM.
In assay [10], `COc1c2c(c(O)c3c1C(=O)c1cc(C)c(O)cc1C3=O)-c1c(cc(/C=N/NC(=S)NC3CCCCC3)c(C(=O)O)c1O)CC2` yielded a concentration for half-maximal inhibition (IC50) of 460 nM and a Ki of 350 nM.
As for `C/C=C1/[C@H](O)C[C@H]2[C@@H]3CCc4cc(OC)ccc4[C@H]3CC[C@]12C`, in assay [11], it took 5490 nM to reach half-maximal inhibition (IC50).
In the case of `N#Cc1ccc(N(Cc2ccc(OS(N)(=O)=O)cc2F)n2cnnc2)cc1`, the IC50 in assay [3] worked out at 2.5 nM.
`C[C@]12CC[C@@H]3c4ccc(NC(=O)C(F)(F)F)cc4CC[C@H]3[C@@H]1CCC2=O` returned an IC50 in assay [3] of 8700 nM.
Take `O=[N+]([O-])c1ccc(N(Cc2ccc(Br)cc2)n2cnnc2)cc1`: inhibition in [1] was half-maximal at 0.12 nM (IC50).
Compound `CCCCCCCCCCCCC(=O)NCCc1ccc(OS(N)(=O)=O)cc1` registered a 50% inhibitory concentration (IC50) in assay [3] of 55.8 nM.
With `CC(O)[C@@]12C[C@@H]1C[C@H]1[C@@H]3CCc4cc(O)ccc4[C@H]3CC[C@]12C` (some centres undefined), the IC50 in [12] is 3000 nM.
For the compound `Oc1ccc2c(c1)O[C@@H](c1ccccc1)C[C@@H]2n1ccnc1`, in [5], 41 nM corresponded to half-maximal inhibition (IC50).
As to `CC/C(=C(\c1ccc(O)cc1)c1ccc(OCCNCCCCCCNC(=O)CCC2=[N+]3C(=CC4=CC=C(C)C4[B-]3(F)F)C=C2)cc1)c1ccccc1` (centres undefined), inhibition in assay [13] was half-maximal at 30 nM (IC50).
`O=c1oc2cc(OP(=O)(O)O)ccc2c2c1CCCC2` gave an IC50 in [3] of 37800 nM.
In the case of `O=c1cc(-c2ccccc2)nc2ccc(-c3ccccc3O)cn12`, in [9], the IC50 amounted to 250000 nM.
Turning to `Cc1c(-c2ccc(O)cc2)nn(-c2ccc(O)cc2)c1-c1ccc(OCCN2CCCCC2)cc1`, the Ki in assay [14] worked out at 1800 nM.
Take `CO[C@H]1/C=C\C=C(/C)C(=O)NC2=CC(=O)C(NC/C=C/C[C@@H]3C[C@H]4[C@@H]5CCc6cc(O)ccc6[C@H]5CC[C@]4(C)[C@H]3O)=C(C[C@@H](C)C[C@H](OC)[C@H](O)[C@@H](C)/C=C(\C)[C@@H]1OC(N)=O)C2=O` (stereo in doubt): the IC50 in assay [15] was determined as 100 nM; in [16], 1500 nM; in assay [17], 80 nM.

Broadly, the IC50 is the point on the concentration scale where inhibition reaches its midpoint. A higher IC50 goes with weaker potency. One may read the Ki as the equilibrium dissociation constant of an inhibitor or competing ligand from its target. Lower therefore signals a stronger hold on the target.
